Here are results for three molecules from patent publication US7605175B2, “Inhibitors of cyclin-dependent kinases, compositions and uses related thereto” (GPC Biotech AG, priority 2001, dated 2009).

Assay [1] deals with NCI panel of 60 cell lines. Put plainly: NCI panel of human tumor cell lines (SRB), Mean-Graph Mid-point. The class given is cell-based. An excerpt: The evaluation of compounds at the National Cancer Institute in their panel of 60 cell lines provides a wealth of information regarding efficacy in a wide range of tumor types and genetic backgrounds. Included within this panel are cell lines derived from leukemia, melanoma and cancers of the lung, colon, brain, ovary, breast, prostate and kidney. Use of this panel provides a measure of the efficacy of compounds in cells with alterations in many genes that are associated with neoplastic transformation including p53 and Her2/Neu as well as those involved in metabolism and those which confer multi-drug resistance. The data generated in these cell lines with the protocol described below can be used to evaluate the activity of compounds.
Cells were grown in RPMI-1640 10% FCS and plated in 96 well micro-titer plates at densities ranging from 5,000 to 40,000 cells/well. The plates were incubated for 24 hours at 37° C., 5% CO2 for 24 hours. Media containing twice the desired final concentration of the compound (5 doses spanning 4 logs) was prepared and 100 μl was added to each well containing 100 μl media plus cells to yield the desired final concentration. The plates were then incubated for an additional 48 hours.
The effect of the compound on cellular viability was determined with the Sulforhodamine B (SRB) assay, which measures total protein. Cells were fixed with cold TCA to a final concentration of 10% and incubated at 4° C. for 60 minutes. The supernatant was discarded and the plates were washed five times with water and air-dried. SRB solution at […] in 1% acetic acid was added to each well and the plates were incubated for 10 minutes at room temperature. The plates were washed five times with 1% acetic acid and air-dried. The bound stain was solubilized with 10 mM trizma base and the absorbance was read on a plate reader at […].

Another assay has as its system arrested HCT-116 cells. Put plainly: Arrested cell assay, arrested HCT-116 tumor cells. It is filed as cell-based. Particulars: Homo sapiens. As for the experimental part: (§1) Cyclin-dependent kinase (Cdk) activity is required to promote the progression of cells through distinct phases of the cell division cycle. The proliferation of normal, non-transformed, cells in culture requires the presence of growth factors, the removal of which, through serum deprivation, leads to a loss of Cdk activity and consequent exit from the cell cycle as cells enter the quiescent phase, G0.
HCT-116 cells were plated in triplicate for each compound concentration to be tested in RPMI 1640 media containing 10% fetal calf serum at a density of either 200 or 2,000 cells per well in 24 well dishes, and incubated overnight at 37° C., 5% CO2. The media from the plate containing 2,000 cells per well was removed, cells were washed once with serum free media and 1 ml of serum free media was placed on cells. The plates containing cells both in the presence and absence of serum were incubated for 6 additional days.
(§2) The cells are incubated in the presence of the compounds for 72 hours (3 days) at 37° C. […] Cycling and arrested HCT-116 cells as well as cycling IMR90 cells were exposed to a panel of 6 doses ranging from 5 to 250 nM. For arrested normal cells, the range of doses was increased to 50 nM to 25 μM, to compensate for the expected decrease in activity.
(§3) The effect of 72 hours of compound exposure on cellular viability was assessed in the Calcein AM assay. Calcein AM is a fluorescent substrate of intracellular esterases that are only active in viable cells. Cleavage of the substrate thus provides a measure of viability, which is proportional to cell number.
(§4) A Calcein AM stock solution was prepared by dissolving a 50 μg aliquot (Molecular Probes catalogue # C3100) in 50 μl DMSO. The tube was incubated at room temperature for approximately 10 minutes to ensure that the Calcein had dissolved completely. The calcein was diluted into 10 ml PBS to prepare the final solution, which was protected from light.
(§5) The media was aspirated off the cells, which were then washed twice with 1 ml PBS to remove the PBS completely from cells by aspiration. 0.5 ml of the Calcein/PBS solution was transferred by pipette into each well. The plates were incubated at 37° C. for 75 minutes (protected from light) and read on a fluorescent plate reader (excitation 485/20 and emission 530/25).

The subject of the next assay is arrested IMR90 cells. Put plainly: Arrested cell assay, arrested IMR90 normal cells. It is filed as cell-based. The following applies: Homo sapiens, IMR-90. As for the experimental part: as §1
IMR90 cells were plated in triplicate for each compound concentration to be tested in MEM-A media containing 10% fetal calf serum at a density of either 2,000 or 20,000 cells per well in 24-well dishes and incubated overnight at 37° C., 5% CO2. The media was removed from the 20,000 cell-per-well dish, cells were washed once with serum-free media, and serum-free media was placed on cells. The plates containing cells both in the presence and absence of serum were incubated for 3 additional days.
as §2, §3, §4, §5

For a further assay, the target named is T1, Cdc2/cyclin B (Homo sapiens, UniProt P06493).
T1 construct: purchased
T1 sequence (P06493 whole entry, species assumed): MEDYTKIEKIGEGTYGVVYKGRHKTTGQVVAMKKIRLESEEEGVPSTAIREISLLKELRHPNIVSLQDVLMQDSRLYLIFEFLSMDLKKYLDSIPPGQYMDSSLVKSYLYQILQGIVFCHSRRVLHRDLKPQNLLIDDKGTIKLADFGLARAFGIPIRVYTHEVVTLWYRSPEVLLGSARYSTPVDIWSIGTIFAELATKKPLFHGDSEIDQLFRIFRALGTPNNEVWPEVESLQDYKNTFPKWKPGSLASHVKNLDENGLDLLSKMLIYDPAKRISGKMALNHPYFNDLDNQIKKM
T1 sequence (P14635 whole entry partner, species assumed): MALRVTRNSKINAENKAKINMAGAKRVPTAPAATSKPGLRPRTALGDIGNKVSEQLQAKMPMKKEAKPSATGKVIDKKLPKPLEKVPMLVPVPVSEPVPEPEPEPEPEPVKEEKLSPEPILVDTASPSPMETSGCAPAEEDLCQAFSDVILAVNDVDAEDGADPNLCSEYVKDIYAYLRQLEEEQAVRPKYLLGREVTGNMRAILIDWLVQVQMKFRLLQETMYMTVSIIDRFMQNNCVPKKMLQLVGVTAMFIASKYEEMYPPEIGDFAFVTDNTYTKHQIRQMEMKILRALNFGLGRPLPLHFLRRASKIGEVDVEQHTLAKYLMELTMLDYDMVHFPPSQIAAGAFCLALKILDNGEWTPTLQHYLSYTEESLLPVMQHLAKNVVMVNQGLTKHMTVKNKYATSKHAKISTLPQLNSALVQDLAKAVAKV
Put plainly: Biochemical kinase assay Cdc2/cyclin B. Particulars: Table 6. Put shortly:
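Radiometric TCA-precipitation assay measuring [γ-32P]ATP incorporation into Histone H1 (20 μg); 50 μM ATP, 10% DMSO, Tris pH 7.5 with MgCl2 and DTT. Compounds at 1 nM to 10 μM; reaction 20 min at 30 °C, stopped with EDTA/ATP. Activity relative to DMSO control after subtracting 50 mM EDTA background.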

Where [2] appears, read: NCI assay, read-out: Mean-Graph Mid-point.
[3] abbreviates: read-out: IC50 for arrested HCT-116 cells.
[4] abbreviates: read-out: IC50 for arrested IMR90 cells.

Like-named read-outs stand apart in the source and are kept apart here.

For `CC(C)N1CCN(C(=O)COc2ccc(-c3[nH]nc4c3C(=O)c3c(NC(=O)NN5CCOCC5)cccc3-4)cc2)CC1.Cl` [Compound A37], the IC50 was < 50 nM in assay [1] (setting [2]), < 50 nM in the assay on arrested HCT-116 cells (setting [3]), > 10000 nM in the assay with arrested IMR90 cells (setting [4]) and < 100 nM against Cdc2/cyclin B.
As to `COCCN1CCN(Cc2ccc(-c3[nH]nc4c3C(=O)c3c(NC(=O)NN5CCOCC5)cccc3-4)cc2)CC1.Cl.Cl` [Compound B16, N-[3-(4-{[4-(2-methoxyethyl)piperazinyl]methyl}phenyl)-4-oxoindeno[2,3-d]pyrazol-5-yl](morpholin-4-ylamino)carboxamide dihydrochloride], the IC50 was < 50 nM in assay [1] (setting [2]), < 50 nM in the assay on arrested HCT-116 cells (setting [3]), > 10000 nM with arrested IMR90 cells (setting [4]) and < 10 nM at Cdc2/cyclin B.
With `CC(C)c1nn(-c2c(Cl)cccc2Cl)c2nc(Cc3ccc(O)c(CN4CCN(C(C)C)CC4)c3)[nH]c(=O)c12` [Compound C], the IC50 is < 100 nM in assay [1] (read-out: NCI panel MG-MID (Mean-Graph Mid-point, average IC50 over the whole cell panel)); < 10 nM with arrested HCT-116 cells (serum-starved arrested cells, 72 hours, read-out: Arrested cell assay HCT IC50); > 1000 nM in the assay with arrested IMR90 cells (serum-starved arrested cells, 72 hours, read-out: Arrested cell assay IMR90 IC50).
